Results published in patent US12692274B2, “Tetrahydroisoquinoline derivatives for the treatment of red blood disorders and inflammatory diseases” (Sanofi, priority 2020, dated 2026).
“And” between values parts separate entries of the source, which are not always exact repeats. Identical values can stand only once.

Key:
[1] = system: NQO1 activation in BEAS-2B cells; assay: BEAS-2B cellular MTT assay of NQO1 activation, 0% HSA; type: cell-based
Outline: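 BEAS-2B cells grown in BEBM with BEGM SingleQuots (no GA-1000), kept below 70% confluence, seeded on collagen plates at a density giving 95-100% confluence after 48 h. Plates seeded in medium without HSA (0% HSA condition).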

[2] = system: NQO1 activation in BEAS-2B cells; assay: BEAS-2B cellular MTT assay of NQO1 activation, 0.3% HSA; type: cell-based
Outline: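 BEAS-2B cells (<70% confluent in culture, BEBM/SingleQuots without GA-1000) seeded in collagen plates with 0.3% or 0% HSA, reaching 95-100% confluency after 48 h at 37 °C, 5% CO2; MTT read-out.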

[3] = biological target: HIS-Keap1 full length / Biotin-Nrf2 (16-mer) (Homo sapiens, UniProt Q14145); assay: biochemical
[4] = Homo sapiens, Serum Free W, read-out: BEAS EC50 (nM) Serum Free W
[5] = Serum Free W, read-out: BEAS EC50 (nM) Serum Free W
[6] = BEAS+ W, read-out: BEAS+ W EC50
[7] = Homo sapiens, BEAS+ W, read-out: BEAS+ W EC50
[8] = Homo sapiens, serum free, read-out: BEAS EC50 (nM) serum free
[9] = Homo sapiens, BEAS+, read-out: BEAS+ EC50
[10] = serum free, read-out: BEAS EC50 (nM) serum free

Chain of HIS-Keap1 full length / Biotin-Nrf2 (16-mer) (Q14145 whole entry): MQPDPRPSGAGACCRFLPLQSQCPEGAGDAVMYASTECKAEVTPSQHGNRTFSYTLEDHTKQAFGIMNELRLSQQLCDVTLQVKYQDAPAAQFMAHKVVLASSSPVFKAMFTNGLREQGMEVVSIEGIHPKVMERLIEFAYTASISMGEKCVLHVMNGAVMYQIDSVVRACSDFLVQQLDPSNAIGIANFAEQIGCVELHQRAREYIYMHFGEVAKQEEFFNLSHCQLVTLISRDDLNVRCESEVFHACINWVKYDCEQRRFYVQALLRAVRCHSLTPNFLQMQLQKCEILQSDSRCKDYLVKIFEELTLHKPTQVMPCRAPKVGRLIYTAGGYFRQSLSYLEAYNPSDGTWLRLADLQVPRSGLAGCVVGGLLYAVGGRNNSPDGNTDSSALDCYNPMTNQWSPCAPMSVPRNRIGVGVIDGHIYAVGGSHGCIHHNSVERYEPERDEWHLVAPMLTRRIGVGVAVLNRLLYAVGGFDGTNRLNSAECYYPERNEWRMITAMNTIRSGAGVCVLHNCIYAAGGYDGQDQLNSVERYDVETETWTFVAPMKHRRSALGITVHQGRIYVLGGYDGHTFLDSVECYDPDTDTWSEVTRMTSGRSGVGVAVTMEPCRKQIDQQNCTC

| SMILES | EC50 [1, 4] [nM] | EC50 [1, 5] | EC50 [2, 6] | EC50 [2, 7] [nM] | IC50 [3] | EC50 [1, 8] [nM] | EC50 [2, 9] [nM] | EC50 [1, 10] [nM] | EC50 ([2]; BEAS+, read-out: BEAS+ EC50) [nM] |
| --- | --- | --- | --- | --- | --- | --- | --- | --- | --- |
| C[C@@H](C(=O)O)[C@@H]1c2ccc(nc2)OCC/C=C/Cc2ccc(cc2)C(=O)N2CCc3ccc1cc3C2 [Compound 46] | 0.7 | 0.5 nM | 2 nM | 3.3 | 0.4 nM and 0.3 nM | – | – | – | – |
| Cc1c2ccc3c1nnn3CCCCCCc1ccc3c(c1)cc(n3CCCF)C(=O)N1CCc3ccc(cc3C1)[C@@H]2CC(=O)O [Compound 69] | 7.7 | 9 nM | 549 nM | 494 | 0.9 nM and 0.7 nM | – | – | – | – |
| Cc1c2cnc3c1nnn3CCCCCCOc1cc(F)c(c(F)c1)C(=O)N1CCc3ccc(cc3C1)[C@H]2CC(=O)O [Compound 208] | 10.1 | 14.9 nM | 27.2 nM | 25.1 | 1.1 nM | – | – | – | – |
| O=C(O)CC1c2cnc(nc2)OCCCCCc2ccc(cc2)C(=O)N2CCc3ccc1cc3C2 (stereo not drawn) [Compound 277, 2-(2-oxo-12-oxa-1,14,28-triazapentacyclo[16.5.3.23,6.213,16.021,25]triaconta-3,5,13(28),14,16(27),18(26),19,21(25),29-nonaen-17-yl)acetic Acid] | – | – | – | – | 2.5 nM and 1.9 nM and 2.7 nM and 1.7 nM | 459 | 3350 | – | – |
| Cc1cc2ccc1C(=O)N1CCc3ccc(cc3C1)[C@@H](CC(=O)O)c1cnc(cc1C)OCCCCC2 [Compound 100] | 1.7 | 1.6 nM | 9.1 nM | 8 | 1.1 nM and 1 nM | – | – | – | – |
| Cc1c2ccc3c1nnn3CCCOCCOc1cc(F)c(c(F)c1)C(=O)N1CCc3ccc(cc3C1)[C@@H]2[C@@H](C)C(=O)O [Compound 367] | – | – | – | – | 0.4 nM | 10.3 | 12.2 | 12.5 | 12.3 |
| O=C(O)CC1c2ccc3c(c2)CN(CC3)C(=O)c2ccc(cn2)CCCCCCn2nnc3c(Cl)c1ccc32 (stereo not drawn) [Compound 225] | – | – | – | – | 2.5 nM and 2.4 nM | 169 | 303 | 175 | 339 |
| Cc1cc2ccc1C(=O)N1CCc3ccc(cc3C1)[C@H](CC(=O)O)c1cnc(cc1C)OCCCCC2 [Compound 99] | 23.9 | 25.6 nM | 79 nM | 108 | 8.8 nM and 8.4 nM | – | – | – | – |
| Cc1c2ccc3c1nnn3CCCCCc1cnc3c(c1)cc(n3C)C(=O)N1CCc3ccc(cc3C1)[C@@H]2CC(=O)O [Compound 112] | 2.9 | 2.7 nM | 25.5 nM | 23 | 0.3 nM | – | – | – | – |
| Cc1c2ccc3c1nnn3CCCCCn1ccc3ccc(cc31)C(=O)N1CCc3ccc(cc3C1)C2CC(=O)O (stereo not drawn) [Compound 393] | – | – | – | – | 3.8 nM and 4.3 nM | 2450 | 1890 | 2110 | 2250 |
| Cc1c2ccc3c1nnn3CCCCCCc1ccc(cc1OC(F)(F)F)C(=O)N1CCc3ccc(cc3C1)[C@@H]2CC(=O)O [Compound 42] | 8.7 | – | 54.1 nM | 35 | 0.9 nM and 1.4 nM | – | – | – | – |
| Cc1c2ccc3c1nnn3CCCCCCOc1ccc(c(F)c1F)C(=O)N1CCc3ccc(cc3C1)C2CC(=O)O (stereo not drawn) [Compound 318] | – | – | – | – | 0.8 nM | 20.4 | 59.2 | – | – |
| Cc1c2n(C)c3ccc(cc13)C/C=C\CCCn1nnc3c(C)c(cnc31)[C@H](CC(=O)O)c1ccc3c(c1)CN(CC3)C2=O [Compound 43] | 4.4 | 4.3 nM and 3.7 nM | 43.5 nM and 37 nM | 42.9 | 0.2 nM | – | – | – | – |
| O=C(O)CC1c2ccc3c(c2)CN(CC3)C(=O)c2ccc(cc2F)CCCCCn2nnc3cc1ccc32 (stereo not drawn) [Compound 252] | – | – | – | – | 1.2 nM and 1.3 nM (2×) and 1.4 nM | 15.5 | 21.2 | – | – |
| Cc1nc2ncc1C(CC(=O)O)c1ccc3c(c1)CN(CC3)C(=O)c1ccc(c(Cl)c1)OCCCCO2 (stereo not drawn) [Compound 186] | – | – | – | – | 527 nM and 289 nM | > 10000 | > 10000 | – | – |
| C[C@H](C(=O)O)[C@@H]1c2ccc(nc2)OCC/C=C/Cc2ccc(cc2)C(=O)N2CCc3ccc1cc3C2 [Compound 47] | 26.2 | 26 nM and 28.7 nM | 94.2 nM and 96.9 nM | 140 | 26.4 nM | – | – | – | – |
| Cc1c2ccc3c1nnn3CCCCCc1ccc(cc1)C(=O)N1CCc3ccc(cc3C1)[C@@H]2CC(=O)O [Compound 285] | – | – | – | – | 0.3 nM and 0.5 nM | 4.7 | 9.8 | – | – |
| O=C(O)CC1c2ccc3c(c2)CN(CC3)C(=O)c2ccc3c(ccn3CCCCCCn3nnc4cc1ccc43)c2 (stereo not drawn) [Compound 397] | – | – | – | – | 13.9 nM and 14.8 nM | 597 | 1520 | 659 | 2150 |
| Cc1cc2cnc1OCCCCCc1ccc(cc1)C(=O)N1CCc3ccc(cc3C1)[C@H]2[C@H](C)C(=O)O [Compound 70] | 32.4 | 29.9 nM | 221 nM | 150 | 594 nM and 763 nM | – | – | – | – |
